{"source": "paper PMC7118906", "about": "“Esculetin Inhibits Cancer Cell Glycolysis by Binding Tumor PGK2, GPD2, and GPI” (Frontiers in Pharmacology, 2020)", "format_in_all_cases": "binding", "key": {"[1]": {"biological_target": "glucose-6-phosphate isomerase (GPI) (Homo sapiens, UniProt P06744)", "test": "microscale thermophoresis with labeled purchased protein (Abcam ab208311)"}, "[2]": {"biological_target": "T1, phosphoglycerate kinase 2 (PGK2) (Homo sapiens, UniProt P07205)", "T1 sequence (P07205 2-417)": "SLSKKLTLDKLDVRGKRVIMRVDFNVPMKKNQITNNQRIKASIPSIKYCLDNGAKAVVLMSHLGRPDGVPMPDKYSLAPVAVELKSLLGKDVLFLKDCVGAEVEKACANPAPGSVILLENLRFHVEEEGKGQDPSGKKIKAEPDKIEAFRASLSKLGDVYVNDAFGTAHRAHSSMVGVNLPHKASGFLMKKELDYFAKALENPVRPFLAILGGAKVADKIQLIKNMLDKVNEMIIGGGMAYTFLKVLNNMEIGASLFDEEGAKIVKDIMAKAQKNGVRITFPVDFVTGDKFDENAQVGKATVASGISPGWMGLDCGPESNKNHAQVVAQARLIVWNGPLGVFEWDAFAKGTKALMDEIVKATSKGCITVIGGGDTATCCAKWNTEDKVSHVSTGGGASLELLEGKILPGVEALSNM", "test": "microscale thermophoresis with labeled purchased protein (Abcam ab123166)"}, "[3]": {"biological_target": "T2, glycerol-3-phosphate dehydrogenase (GPD2) (Homo sapiens, UniProt P43304)", "T2 sequence (P43304 43-727)": "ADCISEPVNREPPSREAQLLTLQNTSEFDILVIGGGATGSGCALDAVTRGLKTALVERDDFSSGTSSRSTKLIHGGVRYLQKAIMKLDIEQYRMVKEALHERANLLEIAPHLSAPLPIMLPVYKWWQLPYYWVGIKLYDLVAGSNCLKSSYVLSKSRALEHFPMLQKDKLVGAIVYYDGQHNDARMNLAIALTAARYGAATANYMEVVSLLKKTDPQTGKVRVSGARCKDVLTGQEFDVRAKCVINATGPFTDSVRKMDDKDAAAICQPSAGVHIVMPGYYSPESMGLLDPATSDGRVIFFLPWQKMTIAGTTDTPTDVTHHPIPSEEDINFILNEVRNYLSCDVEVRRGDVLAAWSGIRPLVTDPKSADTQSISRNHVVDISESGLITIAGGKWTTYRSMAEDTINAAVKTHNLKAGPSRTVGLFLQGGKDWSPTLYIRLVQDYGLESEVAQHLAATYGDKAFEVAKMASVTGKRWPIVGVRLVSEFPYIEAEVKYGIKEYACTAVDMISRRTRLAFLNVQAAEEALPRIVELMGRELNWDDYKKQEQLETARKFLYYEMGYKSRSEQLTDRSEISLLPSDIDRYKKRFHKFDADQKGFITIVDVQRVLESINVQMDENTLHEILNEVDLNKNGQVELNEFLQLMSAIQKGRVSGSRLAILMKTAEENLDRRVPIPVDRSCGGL", "test": "microscale thermophoresis with labeled purchased protein (Abcam ab153790)"}}}
{"smiles": "O=c1ccc2cc(O)c(O)cc2o1", "note": "[Esculetin]", "values": [{"measurement": "Kd", "setting": "[1]", "result": "0.127 ± 0.0224", "unit": "µM"}, {"measurement": "Kd", "setting": "[2]", "result": "0.161 ± 0.0633", "unit": "µM"}, {"measurement": "Kd", "setting": "[3]", "result": "0.666 ± 0.196", "unit": "µM"}]}
